Patent US10227344B2, “CK2 inhibitors, compositions and methods thereof” (Polaris Pharmaceuticals, Inc., priority 2016, dated 2019)

Key:
Format in all cases: cell-based
[1] = system: SK-MEL-24; assay: Cancer cell panel, cell viability (resazurin): Melanoma, SK-MEL-24; settings: SK-MEL-24 (Melanoma), 72 hours; labelled drug combined with Example 3
[2] = system: Colo205; assay: Cancer cell panel, cell viability (resazurin): Colon, Colo205; settings: 72 hours, labelled drug combined with Example 3
Procedure: (§1) Cells were plated in 96-well plates and treated for 72 hours with a serially diluted CK2 inhibitor or anti-cancer drug or their combination. The suspension cell lines were treated right after plating, while the adherent cells were allowed to attach overnight prior to the start of the treatment.
(§2) Cell viability was determined by adding resazurin to cell cultures and measuring fluorescence with a plate reader. Relative cell viability was calculated by dividing the cell viability signal from a test sample by that of a non-treated control. […] Bliss Independence and Highest Single Agent models were used to determine if there is synergy, additivity or antagonism between the CK2 inhibitor and an anti-cancer drug.

[3] = system: A549; assay: Cancer cell panel, cell viability (resazurin): NSCLC, A549; settings: 72 hours, labelled drug combined with Example 3
[4] = system: MeWO; assay: Cancer cell panel, cell viability (resazurin): Melanoma, MeWO; settings: 72 hours, labelled drug combined with Example 3
[5] = system: HL60; assay: Cancer cell panel, cell viability (resazurin): Leukemia, HL60; settings: 72 hours, labelled drug combined with Example 3
[6] = system: Ramos; assay: Cancer cell panel, cell viability (resazurin): Burkitt's Lymphoma, Ramos; settings: 72 hours, labelled drug combined with Example 3
[7] = system: SKOV-3; assay: Cancer cell panel, cell viability (resazurin): Ovarian, SKOV-3; settings: SKOV-3 (Ovarian), 72 hours; labelled drug combined with Example 3
[8] = system: BT-474; assay: Cancer cell panel, cell viability (resazurin): Breast, BT-474; settings: BT-474 (Breast), 72 hours; labelled drug combined with Example 3
[9] = system: Raji; assay: Cancer cell panel, cell viability (resazurin): Burkitt's Lymphoma, Raji; settings: 72 hours, labelled drug combined with Example 3
[10] = system: DLD-1; assay: Cancer cell panel, cell viability (resazurin): Colon, DLD-1; settings: DLD-1 (Colon), 72 hours; labelled drug combined with Example 3
Procedure: as §1, §2

[11] = system: K562; assay: Cancer cell panel, cell viability (resazurin): Leukemia, K562; settings: 72 hours, labelled drug combined with Example 3
[12] = system: Daudi; assay: Cancer cell panel, cell viability (resazurin): Burkitt's Lymphoma, Daudi; settings: 72 hours, labelled drug combined with Example 3
[13] = system: MOLT4; assay: Cancer cell panel, cell viability (resazurin): Leukemia, MOLT4; settings: 72 hours, labelled drug combined with Example 3
Procedure: as §1, §2

[14] = system: H23; assay: Cancer cell panel, cell viability (resazurin): NSCLC, H23; settings: 72 hours, labelled drug combined with Example 3
[15] = system: MDA-MB-157; assay: Cancer cell panel, cell viability (resazurin): Breast, MDA-MB-157; settings: MDA-MB-157 (Breast), 72 hours; labelled drug combined with Example 3
Procedure: as §1, §2

[16] = system: 786-O; assay: Cancer cell panel, cell viability (resazurin): Renal, 786-O; settings: 786-O (Renal), 72 hours; labelled drug combined with Example 3
[17] = system: U266; assay: Cancer cell panel, cell viability (resazurin): multiple myeloma, U266; settings: 72 hours, labelled drug combined with Example 3
[18] = system: LoVo; assay: Cancer cell panel, cell viability (resazurin): Colon, LoVo; settings: 72 hours, labelled drug combined with Example 3
[19] = system: BxPC3; assay: Cancer cell panel, cell viability (resazurin): Pancreatic, BxPC3; settings: 72 hours, labelled drug combined with Example 3
[20] = system: RPMI8226; assay: Cancer cell panel, cell viability (resazurin): multiple myeloma, RPMI8226; settings: 72 hours, labelled drug combined with Example 3
[21] = system: A375; assay: Cancer cell panel, cell viability (resazurin): Melanoma, A375; settings: 72 hours, labelled drug combined with Example 3
[22] = system: NAMALWA; assay: Cancer cell panel, cell viability (resazurin): Burkitt's Lymphoma, NAMALWA; settings: 72 hours, labelled drug combined with Example 3
[23] = system: HCT116; assay: Cancer cell panel, cell viability (resazurin): Colon, HCT116; settings: 72 hours, labelled drug combined with Example 3
Procedure: as §1, §2

[24] = system: LnCap; assay: Cancer cell panel, cell viability (resazurin): Prostate, LnCap; settings: 72 hours, labelled drug combined with Example 3
Procedure: as §1, §2

[25] = system: SK-MEL-3; assay: Cancer cell panel, cell viability (resazurin): Melanoma, SK-MEL-3; settings: SK-MEL-3 (Melanoma), 72 hours; labelled drug combined with Example 3
Procedure: as §1, §2

[26] = system: Caov-3; assay: Cancer cell panel, cell viability (resazurin): Ovarian, Caov-3; settings: Caov-3 (Ovarian), 72 hours; labelled drug combined with Example 3
[27] = system: ZR-75-1; assay: Cancer cell panel, cell viability (resazurin): Breast, ZR-75-1; settings: ZR-75-1 (Breast), 72 hours; labelled drug combined with Example 3
[28] = system: WM-115; assay: Cancer cell panel, cell viability (resazurin): Melanoma, WM-115; settings: WM-115 (Melanoma), 72 hours; labelled drug combined with Example 3
[29] = system: H460; assay: Cancer cell panel, cell viability (resazurin): NSCLC, H460; settings: 72 hours, labelled drug combined with Example 3
[30] = system: H1299; assay: Cancer cell panel, cell viability (resazurin): NSCLC, H1299; settings: 72 hours, labelled drug combined with Example 3
[31] = system: H1975; assay: Cancer cell panel, cell viability (resazurin): NSCLC, H1975; settings: 72 hours, labelled drug combined with Example 3

## CC[C@]1(O)C[C@@H]2CN(CCc3c([nH]c4ccccc34)[C@@](C(=O)OC)(c3cc4c(cc3OC)N(C)[C@H]3[C@@](O)(C(=O)OC)[C@H](OC(C)=O)[C@]5(CC)C=CCN6CC[C@]43[C@@H]65)C2)C1 [Vinblastine, vinblastine]
[1]
  synergy, additivity or antagonism of the combination of Example 3 with the anti-cancer drug: + (Additive relative to each agent alone (CI = 0.9-1 by Bliss Independence Model and <0.9 by Highest Single Agent Model))
[2]
  synergy, additivity or antagonism of the combination of Example 3 with the anti-cancer drug: + + + (Synergy relative to each agent alone (CI = 0.4-0.74 by Bliss Independence Model))
[3]
  synergy, additivity or antagonism of the combination of Example 3 with the anti-cancer drug: + + + (Synergy relative to each agent alone (CI = 0.4-0.74 by Bliss Independence Model))
[4]
  synergy, additivity or antagonism of the combination of Example 3 with the anti-cancer drug: + (Additive relative to each agent alone (CI = 0.9-1 by Bliss Independence Model and <0.9 by Highest Single Agent Model))
[5]
  synergy, additivity or antagonism of the combination of Example 3 with the anti-cancer drug: + + (Slight synergy relative to each agent alone (CI = 0.75-0.9 by Bliss Independence Model))
[6]
  synergy, additivity or antagonism of the combination of Example 3 with the anti-cancer drug: + (Additive relative to each agent alone (CI = 0.9-1 by Bliss Independence Model and <0.9 by Highest Single Agent Model))
[7]
  synergy, additivity or antagonism of the combination of Example 3 with the anti-cancer drug: + (Additive relative to each agent alone (CI = 0.9-1 by Bliss Independence Model and <0.9 by Highest Single Agent Model))
[8]
  synergy, additivity or antagonism of the combination of Example 3 with the anti-cancer drug: + (Additive relative to each agent alone (CI = 0.9-1 by Bliss Independence Model and <0.9 by Highest Single Agent Model))
[9]
  synergy, additivity or antagonism of the combination of Example 3 with the anti-cancer drug: + (Additive relative to each agent alone (CI = 0.9-1 by Bliss Independence Model and <0.9 by Highest Single Agent Model))
[10]
  synergy, additivity or antagonism of the combination of Example 3 with the anti-cancer drug: + + + + (Strong synergy relative to each agent alone (CI < 0.4 by Bliss Independence Model))
[11]
  synergy, additivity or antagonism of the combination of Example 3 with the anti-cancer drug: + (Additive relative to each agent alone (CI = 0.9-1 by Bliss Independence Model and <0.9 by Highest Single Agent Model))
[12]
  synergy, additivity or antagonism of the combination of Example 3 with the anti-cancer drug: + (Additive relative to each agent alone (CI = 0.9-1 by Bliss Independence Model and <0.9 by Highest Single Agent Model))
[13]
  synergy, additivity or antagonism of the combination of Example 3 with the anti-cancer drug: − (Slightly antagonistic relative to each agent alone (CI = 1.1-1.2 by Highest Single Agent Model))
[14]
  synergy, additivity or antagonism of the combination of Example 3 with the anti-cancer drug: + + (Slight synergy relative to each agent alone (CI = 0.75-0.9 by Bliss Independence Model))
[15]
  synergy, additivity or antagonism of the combination of Example 3 with the anti-cancer drug: + + (Slight synergy relative to each agent alone (CI = 0.75-0.9 by Bliss Independence Model))
[16]
  synergy, additivity or antagonism of the combination of Example 3 with the anti-cancer drug: + + + (Synergy relative to each agent alone (CI = 0.4-0.74 by Bliss Independence Model))
[17]
  synergy, additivity or antagonism of the combination of Example 3 with the anti-cancer drug: + (Additive relative to each agent alone (CI = 0.9-1 by Bliss Independence Model and <0.9 by Highest Single Agent Model))
[18]
  synergy, additivity or antagonism of the combination of Example 3 with the anti-cancer drug: + (Additive relative to each agent alone (CI = 0.9-1 by Bliss Independence Model and <0.9 by Highest Single Agent Model))
[19]
  synergy, additivity or antagonism of the combination of Example 3 with the anti-cancer drug: + + + (Synergy relative to each agent alone (CI = 0.4-0.74 by Bliss Independence Model))
[20]
  synergy, additivity or antagonism of the combination of Example 3 with the anti-cancer drug: + (Additive relative to each agent alone (CI = 0.9-1 by Bliss Independence Model and <0.9 by Highest Single Agent Model))
[21]
  synergy, additivity or antagonism of the combination of Example 3 with the anti-cancer drug: + (Additive relative to each agent alone (CI = 0.9-1 by Bliss Independence Model and <0.9 by Highest Single Agent Model))
[22]
  synergy, additivity or antagonism of the combination of Example 3 with the anti-cancer drug: + (Additive relative to each agent alone (CI = 0.9-1 by Bliss Independence Model and <0.9 by Highest Single Agent Model))
[23]
  synergy, additivity or antagonism of the combination of Example 3 with the anti-cancer drug: + (Additive relative to each agent alone (CI = 0.9-1 by Bliss Independence Model and <0.9 by Highest Single Agent Model))
[24]
  synergy, additivity or antagonism of the combination of Example 3 with the anti-cancer drug: + (Additive relative to each agent alone (CI = 0.9-1 by Bliss Independence Model and <0.9 by Highest Single Agent Model))
[25]
  synergy, additivity or antagonism of the combination of Example 3 with the anti-cancer drug: + (Additive relative to each agent alone (CI = 0.9-1 by Bliss Independence Model and <0.9 by Highest Single Agent Model))
[26]
  synergy, additivity or antagonism of the combination of Example 3 with the anti-cancer drug: + (Additive relative to each agent alone (CI = 0.9-1 by Bliss Independence Model and <0.9 by Highest Single Agent Model))
[27]
  synergy, additivity or antagonism of the combination of Example 3 with the anti-cancer drug: + (Additive relative to each agent alone (CI = 0.9-1 by Bliss Independence Model and <0.9 by Highest Single Agent Model))
[28]
  synergy, additivity or antagonism of the combination of Example 3 with the anti-cancer drug: + (Additive relative to each agent alone (CI = 0.9-1 by Bliss Independence Model and <0.9 by Highest Single Agent Model))
[29]
  synergy, additivity or antagonism of the combination of Example 3 with the anti-cancer drug: + (Additive relative to each agent alone (CI = 0.9-1 by Bliss Independence Model and <0.9 by Highest Single Agent Model))
[30]
  synergy, additivity or antagonism of the combination of Example 3 with the anti-cancer drug: + (Additive relative to each agent alone (CI = 0.9-1 by Bliss Independence Model and <0.9 by Highest Single Agent Model))
[31]
  synergy, additivity or antagonism of the combination of Example 3 with the anti-cancer drug: + (Additive relative to each agent alone (CI = 0.9-1 by Bliss Independence Model and <0.9 by Highest Single Agent Model))
